Measurements from PMC3335078, “Length and Amino Acid Sequence of Peptides Substituted for the 5-HT3A Receptor M3M4 Loop May Affect Channel Expression and Desensitization” (PLoS ONE, 2012).

Tests used:
[1] = molecular target: T1, 5-HT3A-A6 (M3M4 loop replaced by six alanines) (Mus musculus, UniProt P23979)
T1 sequence (P23979 with tags, fused parts or gaps isoform P23979-2 limits assumed): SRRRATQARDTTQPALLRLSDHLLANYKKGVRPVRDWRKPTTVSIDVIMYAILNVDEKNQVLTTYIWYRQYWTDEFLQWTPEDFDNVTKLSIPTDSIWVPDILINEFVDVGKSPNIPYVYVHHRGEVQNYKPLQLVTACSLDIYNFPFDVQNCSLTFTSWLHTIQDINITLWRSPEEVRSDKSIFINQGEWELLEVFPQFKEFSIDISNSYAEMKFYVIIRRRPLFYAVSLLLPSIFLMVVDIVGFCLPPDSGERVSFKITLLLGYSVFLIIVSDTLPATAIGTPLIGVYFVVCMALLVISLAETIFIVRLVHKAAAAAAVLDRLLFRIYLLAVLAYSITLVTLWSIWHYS
Description: (§1) The mouse 5-HT3A cDNA with an N-terminal V5 epitope tag was cloned into the pXOON vector as previously described, and is referred to in this paper as “wild-type” (WT). The starting construct for all of the M3M4 loop replacement constructs used in this work was the 5-HT3A-ΔM3M4 construct formed by splicing the cytoplasmic end of M3 (M3-LVHK/QDLQRP…) to the cytoplasmic end of M4 (…WLRVGY/VLDRLL-M4). The splice was made at the site of the “/” to yield the sequence M3-LVHK/VLDRLL-M4 [34]. This removed 115 residues predicted to form the M3M4 loop.
(§2) The construction of the 5-HT3A-glvM3M4 chimera with the 5-HT3A M3M4 loop replaced by the GLIC heptapeptide M3M4 loop (SQPARAA) was described previously. Point mutations, alanine and Gly-Ser-Ala insertions into the 5-HT3A-ΔM3M4 construct were generated with the Quikchange site directed mutagenesis procedure (Stratagene, La Jolla, CA). The entire coding region of all mutant constructs was verified by DNA sequencing (Albert Einstein College of Medicine DNA Sequencing Facility). The pXOON plasmid was linearized using NheI and capped mRNA prepared with T7 RNA polymerase (mMessage mMachine, Ambion, Austin, TX).
(§3) Use of Xenopus laevis in this study was carried out in strict accordance with the recommendations in the Guide for the Care and Use of Laboratory Animals of the National Institutes of Health. The protocol was approved by the Albert Einstein College of Medicine Animal Care and Use Committee (Protocol Number: 20081201). All surgery was performed under tricaine anesthesia, and all efforts were made to minimize suffering. Oocyctes were harvested from Xenopus (Nasco Science, Fort Atkinson, WI) anesthetized with 0.15% tricaine. Oocyctes were defolliculated by incubation in 2 mg ml^−1 Type 1A collagenase (Sigma-Aldrich, St. Louis, MO) in OR2 (85 mM NaCl, 2 mM KCl, 1 mM MgCl2, and 5 mM HEPES; pH adjusted to 7.5 with NaOH) for a 60 or 75 min. Oocytes were washed in OR2 and stored at 16°C in SOS medium: 100 mM NaCl, 2 mM KCl, 1 mM MgCl2, 1.8 mM CaCl2 5 mM HEPES, pH 7.5 with 100 IU ml^−1 penicillin, 100 µg ml^−1 streptomycin, and 250 ng ml^−1 amphotericin B (Invitrogen, Carlsbad, CA) and 5% horse serum (Sigma-Aldrich). 24 hrs following isolation, oocyctes were injected with 23 nl (2.3 ng) of mRNA and were kept in SOS media for 2–5 d at 16°C.
(§4) Currents were recorded under two-electrode voltage clamp from oocytes 2–5 d post-injection as described previously. […] The perfusion chamber volume was 200 µl. A 3 M KCl/agar bridge connected the ground electrode to the bath. The holding potential was maintained at −60 mV. […] Salts were purchased from Fisher Scientific (Hampton, NH) or Sigma-Aldrich.
(§5) Desensitization rates were determined by fitting a single exponential decay function to the current data with Prism 4 software (GraphPad Software). Significant differences compared with wild-type were determined by a one-way ANOVA (p<0.05) using Dunnett's multiple comparison post-hoc test (p<0.05). […]

[2] = molecular target: T2, 5-HT3A-A7 (M3M4 loop replaced by seven alanines) (Mus musculus, UniProt P23979)
T2 sequence (P23979 with tags, fused parts or gaps isoform P23979-2 limits assumed): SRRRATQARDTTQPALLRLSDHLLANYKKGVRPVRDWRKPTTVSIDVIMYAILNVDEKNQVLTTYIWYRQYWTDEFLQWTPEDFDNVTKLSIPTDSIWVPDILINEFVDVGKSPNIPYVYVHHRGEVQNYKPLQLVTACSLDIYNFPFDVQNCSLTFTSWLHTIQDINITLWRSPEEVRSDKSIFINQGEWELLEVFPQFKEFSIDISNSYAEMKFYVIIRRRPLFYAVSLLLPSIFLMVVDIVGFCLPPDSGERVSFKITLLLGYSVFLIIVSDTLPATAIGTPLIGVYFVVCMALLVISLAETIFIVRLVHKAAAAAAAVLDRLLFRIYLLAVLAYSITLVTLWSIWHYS
Description: as §1, §2, §3, §4, §5

[3] = molecular target: T3, 5-HT3A M3M4 loop GSAGSAGSA mutant (Mus musculus, UniProt P23979); test: Two-electrode voltage clamp, oocytes expressing […] M3M4 mutant; assay type: cell-based; conditions: Xenopus oocytes
T3 construct: expressed in transfected cells; host or cells: Xenopus laevis oocytes injected with mRNA
T3 sequence (P23979 with tags, fused parts or gaps isoform P23979-2 limits assumed, change not shown): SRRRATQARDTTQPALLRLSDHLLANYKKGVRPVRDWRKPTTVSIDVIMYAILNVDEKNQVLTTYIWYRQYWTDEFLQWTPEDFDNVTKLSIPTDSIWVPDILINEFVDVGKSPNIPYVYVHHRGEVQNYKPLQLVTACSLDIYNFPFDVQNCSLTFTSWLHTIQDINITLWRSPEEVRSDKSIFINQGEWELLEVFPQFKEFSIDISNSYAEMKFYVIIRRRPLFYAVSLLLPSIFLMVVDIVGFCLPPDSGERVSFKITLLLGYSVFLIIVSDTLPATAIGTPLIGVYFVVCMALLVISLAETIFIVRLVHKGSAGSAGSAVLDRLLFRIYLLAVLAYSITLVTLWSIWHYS
Description: as §1
The construction of the 5-HT3A-glvM3M4 chimera with the 5-HT3A M3M4 loop replaced by the GLIC heptapeptide M3M4 loop (SQPARAA) was described previously. Point mutations, alanine and Gly-Ser-Ala insertions into the 5-HT3A-ΔM3M4 construct were generated with the Quikchange site directed mutagenesis procedure (Stratagene, La Jolla, CA). […]
(§6) Currents were recorded under two-electrode voltage clamp from oocytes 2–5 d post-injection as described previously. […]
(§7) Desensitization rates were determined by fitting a single exponential decay function to the current data with Prism 4 software (GraphPad Software). Significant differences compared with wild-type were determined by a one-way ANOVA (p<0.05) using Dunnett's multiple comparison post-hoc test (p<0.05). […]

[4] = molecular target: T4, 5-HT3A-A4 (M3M4 loop replaced by four alanines) (Mus musculus, UniProt P23979); test: Two-electrode voltage clamp, oocytes expressing 5-HT3A-A4; assay type: cell-based
T4 construct: expressed in transfected cells; host or cells: Xenopus laevis oocytes injected with mRNA
T4 sequence (P23979 with tags, fused parts or gaps isoform P23979-2 limits assumed): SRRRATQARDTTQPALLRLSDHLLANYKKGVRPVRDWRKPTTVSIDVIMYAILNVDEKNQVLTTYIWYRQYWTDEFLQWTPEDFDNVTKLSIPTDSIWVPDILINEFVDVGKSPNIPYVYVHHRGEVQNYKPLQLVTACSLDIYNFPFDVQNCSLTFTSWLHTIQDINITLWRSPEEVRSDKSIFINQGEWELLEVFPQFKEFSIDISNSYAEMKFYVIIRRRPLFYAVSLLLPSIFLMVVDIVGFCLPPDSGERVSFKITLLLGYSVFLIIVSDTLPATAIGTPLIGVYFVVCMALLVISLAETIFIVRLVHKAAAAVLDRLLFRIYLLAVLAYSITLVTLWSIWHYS
Description: as §1, §2
Use of Xenopus laevis in this study was carried out in strict accordance with the recommendations in the Guide for the Care and Use of Laboratory Animals of the National Institutes of Health. The protocol was approved by the Albert Einstein College of Medicine Animal Care and Use Committee (Protocol Number: 20081201). All surgery was performed under tricaine anesthesia, and all efforts were made to minimize suffering. Oocyctes were harvested from Xenopus (Nasco Science, Fort Atkinson, WI) anesthetized with 0.15% tricaine. […]
as §6, §7

[5] = 10 µM 5-HT, Xenopus oocytes, -60 mV

Structure (SMILES): NCCc1c[nH]c2ccc(O)cc12 [5-HT, 5-hydroxytryptamine]
- 10–90% Activation rise time ([1]; 10 µM 5-HT): 1017 ± 23 ms
- Imax (peak current) [1, 5]: 6400±1100 nA
- Desensitization time constant τ ([1]; prolonged 10 µM 5-HT): 77 ± 6 s
- nH (Hill coefficient) [2]: 3.7±0.8
- 10–90% Activation rise time ([2]; 10 µM 5-HT): 881 ± 110 ms
- Desensitization time constant τ ([2]; prolonged 10 µM 5-HT): 62 ± 4 s
- 5-HT induced current [3]: no detectable currents
- 10–90% Activation rise time ([4]; 10 µM 5-HT): 487 ± 25 ms
- Imax (peak current) [4, 5]: 7100±400 nA
- Desensitization time constant τ ([4]; prolonged 10 µM 5-HT): 56 ± 9 s
